Reference: patent US12209081B2 (Katholieke Universiteit Leuven, priority 2020, dated 2025)

Target: mouse TRPM3α2 (mTRPM3) ion channel (Mus musculus (Mouse), UniProt J9SQF3)
Experiment: TRPM3 ion channel driven Ca2+ uptake, Fluo-4 AM assay, mTRPM3alpha2 overexpressing flip-in HEK293 cells stimulated with pregnenolone sulfate
Format: cell-based
Settings: PS 50 μM, cpds 200-299
Experimental: Part B Monitoring the TRPM3 Ion Channel Driven Ca^2+ Uptake.
In order to monitor the inhibition of the mouse TRPM3α2 (mTRPM3) ion channel by the compounds of the invention, a cellular system making use of an mTRPM3alpha2 or hTRPM3 overexpressing cell line (flip-in HEK293) was used. The TRPM3 channel was stimulated/opened with Pregnenolone sulfate (PS) (50 μM) which results in Ca^2+ influx.
For mTRPM3, the intracellular Ca^2+ was measured with a Calcium responsive dye. Fluor-4 AM ester (Invitrogen). Cells were cultured until a confluence of 80-90%, washed with Versene (Invitrogen) and detached from the surface by a short incubation with 0.05% Trypsin (Invitrogen). The trypsination process was stopped by the addition of complete cell culture medium (DMEM, glutamax, 10% FCS,NEAA,Pen-Strep). Cells were collected and resuspended in Krebs buffer without Calcium at RT.
Prior the cell seeding (±2000 cells/well into a black, 384 well plate (Greiner)) the diluted compound was added in the assay plate, together with the PS dissolved in Krebs buffer containing Calcium. […] Directly after cell addition the plates were read on an Envision fluorescence reader (Perkin Elmer) by an Excitation of 485 nm and emission at 535 nm.
Channel inhibition was calculated compared to a non-PS stimulated control versus a condition stimulated with PS (50 μM) with vehicle. The ability of the compounds of the invention to inhibit this activity was determined as: Percentage inhibition=[1-((RFU determined for sample with test compound present—RFU determined for sample with positive control inhibitor) divided by (RFU determined in the presence of vehicle—RFU determined for sample with positive control inhibitor))]*100.

Chain of mouse TRPM3α2 (mTRPM3) ion channel (J9SQF3 other isoform, or with tags, fused parts or gaps): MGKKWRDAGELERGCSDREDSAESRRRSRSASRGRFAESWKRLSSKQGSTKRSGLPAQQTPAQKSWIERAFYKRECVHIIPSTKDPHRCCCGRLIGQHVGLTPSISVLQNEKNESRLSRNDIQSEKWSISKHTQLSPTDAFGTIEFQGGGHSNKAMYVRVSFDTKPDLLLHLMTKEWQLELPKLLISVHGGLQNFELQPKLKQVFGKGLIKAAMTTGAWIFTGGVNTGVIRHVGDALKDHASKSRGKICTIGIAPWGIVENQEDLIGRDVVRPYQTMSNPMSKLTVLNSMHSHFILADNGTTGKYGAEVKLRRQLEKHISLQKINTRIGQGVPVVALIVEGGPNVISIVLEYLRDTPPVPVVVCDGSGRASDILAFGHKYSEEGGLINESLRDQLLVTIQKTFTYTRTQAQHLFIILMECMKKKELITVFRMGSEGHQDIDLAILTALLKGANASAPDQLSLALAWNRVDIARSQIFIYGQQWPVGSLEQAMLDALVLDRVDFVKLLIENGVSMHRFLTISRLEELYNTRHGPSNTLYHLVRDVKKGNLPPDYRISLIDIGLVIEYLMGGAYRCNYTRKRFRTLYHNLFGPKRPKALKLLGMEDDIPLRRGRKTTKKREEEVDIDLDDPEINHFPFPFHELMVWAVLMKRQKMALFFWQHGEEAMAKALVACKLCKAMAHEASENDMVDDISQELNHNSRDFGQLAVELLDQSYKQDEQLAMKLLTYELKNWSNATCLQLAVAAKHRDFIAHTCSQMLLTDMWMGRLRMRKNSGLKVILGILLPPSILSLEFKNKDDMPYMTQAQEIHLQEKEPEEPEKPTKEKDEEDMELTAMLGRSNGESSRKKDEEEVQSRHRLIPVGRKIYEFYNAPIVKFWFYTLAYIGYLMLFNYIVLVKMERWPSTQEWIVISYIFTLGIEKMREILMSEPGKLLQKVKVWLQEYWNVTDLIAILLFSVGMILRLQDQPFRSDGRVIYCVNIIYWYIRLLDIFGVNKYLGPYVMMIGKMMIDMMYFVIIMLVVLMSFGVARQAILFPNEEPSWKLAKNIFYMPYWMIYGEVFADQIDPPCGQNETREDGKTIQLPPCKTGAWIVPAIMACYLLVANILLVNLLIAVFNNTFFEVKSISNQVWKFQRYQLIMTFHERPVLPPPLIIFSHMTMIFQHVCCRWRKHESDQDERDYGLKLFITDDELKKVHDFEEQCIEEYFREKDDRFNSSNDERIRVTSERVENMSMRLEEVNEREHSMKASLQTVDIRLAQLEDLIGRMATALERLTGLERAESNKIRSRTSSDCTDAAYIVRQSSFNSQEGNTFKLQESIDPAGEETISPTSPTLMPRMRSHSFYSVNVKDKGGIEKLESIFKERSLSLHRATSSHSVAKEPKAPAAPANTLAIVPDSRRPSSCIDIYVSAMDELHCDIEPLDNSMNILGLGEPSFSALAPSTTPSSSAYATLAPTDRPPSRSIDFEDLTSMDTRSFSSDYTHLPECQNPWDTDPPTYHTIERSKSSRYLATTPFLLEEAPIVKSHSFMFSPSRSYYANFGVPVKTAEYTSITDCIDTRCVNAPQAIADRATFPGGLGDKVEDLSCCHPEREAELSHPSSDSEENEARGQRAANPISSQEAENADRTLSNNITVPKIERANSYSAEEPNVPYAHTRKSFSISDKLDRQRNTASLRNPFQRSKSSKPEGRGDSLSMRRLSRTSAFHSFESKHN

| IC50 | Structure (SMILES) |
| --- | --- |
| 1 to 20 µM | Cc1oc2ccc(OCc3nccn3C)cc2c1C(=O)NC1CCNCC1(F)F (single isomer, unassigned) [cpd 205-En 1] |
| < 1 µM | Cc1oc2ccc(OCc3nccn3C)cc2c1C(=O)NC1CCNCC1(F)F (single isomer, unassigned) [cpd 205-En 2] |
| < 1 µM | CCOc1ncccc1COc1ccc2oc(C)c(C(=O)NC3CCNCC3(F)F)c2c1 (single isomer, unassigned) [cpd 207-En 1] |
| > 20 µM | Cc1ncsc1COc1ccc2oc(C)c(C(=O)NC(CO)C(=O)O)c2c1 (single isomer, unassigned) [cpd 270-En 1] |

Same assay, conditions: PS 50 μM, cpds 300-399

| IC50 | Structure (SMILES) |
| --- | --- |
| 1 to 20 µM | O=C(NC1CCNCC1(F)F)c1c(C2CC2)oc2ccc(OCc3cccnc3C(F)(F)F)cc12 (single isomer, unassigned) [cpd 313-En 2] |
| < 1 µM | Cc1ncsc1COc1ccc2oc(C)c(C(=O)NC(C)c3ncco3)c2c1 (single isomer, unassigned) [cpd 315-En 1] |
| < 1 µM | Cc1ncsc1COc1ccc2oc(C)c(C(=O)NC(CO)C(F)(F)F)c2c1 (single isomer, unassigned) [cpd 316-En 1] |
| < 1 µM | Cc1ncsc1COc1ccc2oc(C)c(C(=O)NC3COCCNC3=O)c2c1 (single isomer, unassigned) [cpd 317-En 1] |
| < 1 µM | Cc1oc2ccc(OCc3cccnc3N3CCC3)cc2c1C(=O)NC1CCNCC1(F)F (single isomer, unassigned) [cpd 336-En 1] |
| < 1 µM | Cc1oc2ccc(OCc3cccnc3OC(F)F)cc2c1C(=O)NC1CCNCC1(F)F (single isomer, unassigned) [cpd 338-En 1] |
| < 1 µM | Cc1oc2ccc(OCc3cccnc3OC(F)F)cc2c1C(=O)NC1CCNCC1(F)F (single isomer, unassigned) [cpd 338-En 2] |
| < 1 µM | Cc1oc2ccc(OCc3cccnc3C(F)F)cc2c1C(=O)NC1CCNCC1(F)F (single isomer, unassigned) [cpd 342-En 1] |

Second part, the molecule before the results:

| Structure (SMILES) | IC50 |
| --- | --- |
| Cc1ncsc1COc1ccc2oc(C(F)F)c(C(=O)NC3CCNCC3(F)F)c2c1 (single isomer, unassigned) [cpd 310-En 1] | < 1 µM |
| Cc1ncsc1COc1ccc2oc(C(F)F)c(C(=O)NC3CCNCC3(F)F)c2c1 (single isomer, unassigned) [cpd 310-En 2] | < 1 µM |
| O=C(NC1CCNCC1(F)F)c1c(C2CC2)oc2ccc(OCc3cccnc3C(F)(F)F)cc12 (single isomer, unassigned) [cpd 313-En 1] | < 1 µM |

Same assay, conditions: PS (50 μM) stimulated, cpd 001-199

| IC50 | Structure (SMILES) |
| --- | --- |
| < 1 µM | Cc1ncsc1COc1ccc2oc(C)c(C(=O)NC3CNCCC3(F)F)c2c1 (single isomer, unassigned) [cpd 103-En 1] |
| < 1 µM | Cc1oc2ccc(OCc3cccnc3C(F)(F)F)cc2c1C(=O)NC1CNCC1(F)F (single isomer, unassigned) [cpd 105-En 1, N-(4,4-difluoropyrrolidin-3-yl)-2-methyl-5-((2-(trifluoromethyl)pyridin-3-yl)methoxy)benzofuran-3-carboxamide] |
| < 1 µM | Cc1ncsc1COc1ccc2oc(C)c(C(=O)NC3CNCC3(F)F)c2c1 (single isomer, unassigned) [cpd 106-En 1] |
| < 1 µM | Cc1oc2ccc(OCc3cccnc3C(F)(F)F)cc2c1C(=O)NC1CNCCC1(F)F (single isomer, unassigned) [cpd 111-En 1] |
| < 1 µM | Cc1oc2ccc(OCc3cccnc3C(F)(F)F)c(F)c2c1C(=O)NC1CCNCC1(F)F (single isomer, unassigned) [cpd 112-En 1, N-(3,3-difluoropiperidin-4-yl)-4-fluoro-2-methyl-5-((2-(trifluoromethyl)pyridin-3-yl)methoxy) -benzofuran-3-carboxamide] |
| < 1 µM | Cc1ncsc1COc1ccc2oc(C)c(C(=O)NC3CNCC(F)(F)C3)c2c1 (single isomer, unassigned) [cpd 115-En 1] |
| < 1 µM | Cc1oc2ccc(OCc3cccnc3C(F)(F)F)cc2c1C(=O)NC1CNCC(F)(F)C1 (single isomer, unassigned) [cpd 125-En 1] |
| < 1 µM | Cc1ncsc1COc1ccc2oc(C)c(C(=O)NC3(CO)CCOC3)c2c1 (single isomer, unassigned) [cpd 132-En 1] |
| < 1 µM | Cc1oc2ccc(OCc3cccnc3C(F)(F)F)cc2c1C(=O)NC1(CO)CCOC1 (single isomer, unassigned) [cpd 135-En 1] |
| < 1 µM | Cc1oc2ccc(OCc3cccnc3C(F)(F)F)cc2c1C(=O)NC1CCOC1 (single isomer, unassigned) [cpd 148-En 1] |
| < 1 µM | Cc1ncsc1COc1ccc2oc(C)c(C(=O)NC3CCOC3)c2c1 (single isomer, unassigned) [cpd 159-En 1] |
| 1 to 20 µM | Cc1oc2c(F)cc(OCc3cccnc3C(F)(F)F)cc2c1C(=O)NC1CCNCC1(F)F (single isomer, unassigned) [cpd 176-En 1, N-(3,3-difluoropiperidin-4-yl)-7-fluoro-2-methyl-5-((2-(trifluoro-methyl)pyridin-3-yl)methoxy)benzofuran-3-carboxamide] |
| < 1 µM | Cc1oc2c(F)cc(OCc3cccnc3C(F)(F)F)cc2c1C(=O)NC1CCNCC1(F)F (single isomer, unassigned) [cpd 176-En 2, N-(3,3-difluoropiperidin-4-yl)-7-fluoro-2-methyl-5-((2-(trifluoro-methyl)pyridin-3-yl)methoxy)benzofuran-3-carboxamide] |

Same assay, conditions: PS (50 μM) stimulated, cpds. 400-499

| IC50 | Structure (SMILES) |
| --- | --- |
| 1 to 20 µM | Cc1ncc(COc2ccc3oc(C)c(C(=O)NC(CO)c4nc5ccccc5[nH]4)c3c2)s1 (single isomer, unassigned) [cpd 401-En 2] |
| < 1 µM | Cc1oc2ccc(OCc3cccnc3C(F)(F)F)cc2c1C(=O)NC(C)CO (single isomer, unassigned) [cpd 489-En 2] |
| < 1 µM | Cc1ncc(COc2ccc3oc(C)c(C(=O)NC(C)CO)c3c2)s1 (single isomer, unassigned) [cpd 490-En 1] |
| < 1 µM | Cc1ncsc1COc1ccc2oc(C)c(C(=O)NC(C)CO)c2c1 (single isomer, unassigned) [cpd 491-En 1] |

Same assay, conditions: PS (50 μM) stimulated, cpds. 500-599

| IC50 | Structure (SMILES) |
| --- | --- |
| < 1 µM | Cc1oc2ccc(OCc3cccnc3C(F)(F)F)cc2c1C(=O)NC1(CO)CCCOC1 (single isomer, unassigned) [cpd 531-En 1] |
| < 1 µM | Cc1ncsc1COc1ccc2oc(C)c(C(=O)NC3(CO)CCCOC3)c2c1 (single isomer, unassigned) [cpd 532-En 1] |
| < 1 µM | Cc1ncc(COc2ccc3oc(C)c(C(=O)NC4(CO)CCOC4)c3c2)s1 (single isomer, unassigned) [cpd 533-En 1] |
| < 1 µM | Cc1oc2ccc(OCc3ccccn3)cc2c1C(=O)NC1(CO)CCOC1 (single isomer, unassigned) [cpd 534-En 1] |
| < 1 µM | Cc1oc2ccc(OCc3cccnc3O)cc2c1C(=O)NC1(CO)CCOC1 (single isomer, unassigned) [cpd 535-En 1] |
| < 1 µM | COc1ncccc1COc1ccc2oc(C)c(C(=O)NC3(CO)CCOC3)c2c1 (single isomer, unassigned) [cpd 536-En 1] |
| 1 to 20 µM | Cc1oc2ccc(OCc3cccnc3C(F)(F)F)c(C)c2c1C(=O)NC1CCNCC1(F)F (single isomer, unassigned) [cpd 538-En 1] |

Same assay, conditions: PS (50 μM) stimulated, cpds. 667-751

| IC50 | Structure (SMILES) |
| --- | --- |
| < 1 µM | Cc1oc2ccc(OCc3c[nH]nc3C(F)(F)F)cc2c1C(=O)NC1(CO)CCNC1=O (single isomer, unassigned) [730-En 1, N-(3-(Hydroxymethyl)-2-oxopyrrolidin-3-yl)-2-methyl-5-((3-(trifluoromethyl)-1H-pyrazol-4-yl)methoxy)benzofuran-3-carboxamide] |
